{"source": "patent US20090311716A1", "about": "“METHODS TO TREAT OR PREVENT HORMONE-RESISTANT PROSTATE CANCER USING siRNA [sequence] FOR PROTOCADHERIN-PC, OR OTHER INHIBITORS OF PROTOCADHERIN-PC EXPRESSION OR ACTIVITY” (THE TRUSTEES OF COLUMBIA UNIVERSITY IN THE CITY OF NEW YORK, priority 2005, published 2009)", "format_in_all_cases": "cell-based, human", "key": {"PCDH-PC": {"tested_on": "PCDH-PC", "assay": "Western blot of myc-tagged PCDH-PC in LNCaP cells co-transfected with pPCDH-PC-myc and siRNA", "settings": "siRNA 100 nM co-transfected with pPCDH-PC-myc, 48 hrs; listed as #181", "excerpt": "FIGS. 4A-4B. siRNAs against PCDH-PC suppress PCDH-PC expression and NE transdifferentiation of LNCaP cells. FIG. 4A. LNCaP cells were transfected with the pPCDH-PC-myc expression vector and were co-transfected with siRNA against human lamin or siRNAs 181, 190 or 208 designed to suppress PCDH-PC expression. A Western blot made against protein extracts from these cells were probed with anti-myc (Top Panel) to identify expression of the 110 kd PCDH myc-tagged protein, anti-β-actin (Middle Panel) or anti-human E-cadherin (Bottom Panel). FIG. 4B. A repeated experiment that includes control LNCaP cells (no transfection) or pCMV-PCDH-myc transfected LNCaP cells co-transfected with siRNAs against lamin or against PCDH-PC (181, 190 or 208). The Western blot was probed for NSE expression (Top Panel) or for β-actin expression (Bottom Panel).\nExpression Vectors, Transfection Protocols and Luciferase/β-Glactosidase Assays. PCDH-PC cDNA was inserted into the mammalian expression vectors pcDNA3 (Invitrogen Life Technologies, Inc., Carlsbad, Calif.) or into pCMV-myc (BD Biosciences, Clontech, Inc., Palo Alto, Calif.) so that the PCDH-PC product generated from this vector (pPCDH-PC-myc) has a C-terminal myc tag. An expression vector containing cDNA encoding a mutated (stabilized) form of human β-catenin (Tetsu and McCormick, 1999) was used. A dominant-negative Tcf expression vector used was previously described (Chen et al., 2001). The Tcf-sensitive reporter vector, pTOP and a CMV-promoted β-galactosidase expression vector were obtained from Upstate Biotechnology, Inc. Transfections used for protein or RNA extractions were done in 35 cm^2 dishes with cells plated at 50% density 12-16 hrs prior. […] Luciferase activity in cell extracts was measured using the Luciferase Assay System of Promega, Inc. (Madison, Wis.). β-galactosidase activity was also measured in the same cell extracts using the β-galactosidase Enzyme Assay System of Promega, Inc. All experiments involving luciferase reporter vectors were done in triplicate for each point. […]"}, "LNCaP cells": {"tested_on": "LNCaP cells", "assay": "Flow cytometry of propidium iodide stained cells, sub-G0 peak (cell death)", "settings": "for dead cells (sub-G0 peak): LNCaP in androgen-free medium 5 days, then siRNA transfection a further 48 hrs", "experimental": "FIG. 18. Selective killing of LNCaP cells grown in androgen-free medium by PCDH-PC siRNA. LNCaP cells grown in normal medium or in androgen-free medium (phenol red-free RPMI supplemented with CS-FBS) for 5 days were transfected with PCDH-PC siRNA (#181) or with lamin siRNA, as indicated for a further 48 hrs. Cells were collected, fixed and stained with propidium iodide and were analyzed by flow cytometry. Bars represent the % population of cells in the sub-G0 peak considered to be apoptotic. The bars are averages based on two measurements under each condition. No siRNAs were untransfected cells.\nsiRNAs and Transfection of Cultured Human Prostate Cancer Cells. Commercial siRNAs targeting human β-catenin and lamin A were purchased from Dharmacon, Inc. (Chicago, Ill.). Three different siRNAs targeting PCDH-PC were designed using the siRNA Target Finder software program available through Ambion, Inc. (Austin, Tex.). The anti-PCDH-PC siRNAs targeted sequences at position 3043-3062 (#181; SEQ ID NO:4; FIG. 29), 3098-3117 (#190; SEQ ID NO:6; FIG. 31) or 3345-3364 (#208; SEQ ID NO:7; FIG. 32) on the PCDH-PC mRNA. The 21 bp siRNAs were constructed using the 19 bp core sequences described above with 2 nucleotide UU overhangs and these siRNAs were produced and provided by Ambion, Inc. siRNAs were transfected or co-transfected (with other expression vectors as described) into LNCaP cells at 100 nM final concentrations using Lipofectamine 2000 transfection reagent (Invitrogen Life Technologies, Inc.) in serum-free medium as instructed by the manufacturer. 48 hrs after transfection, cells were harvested and extracted for protein or RNA as described below."}, "[1]": {"tested_on": "Tcf-sensitive reporter pTOP (wnt signaling)", "assay": "Tcf-sensitive pTOP luciferase reporter assay (wnt signaling) in LNCaP cells", "settings": "7 days in androgen-free medium", "excerpt": "FIGS. 5A-5C. siRNAs against PCDH-PC suppress PCDH-PC expression, TCF-mediated transcription and NE transdifferentiation in LNCaP cells grown in androgen-free medium. FIG. 5A. RNAs extracted from LNCaP cells grown in normal medium (Control) or in androgen-free medium (CS-FBS, None) were compared toRNAs from LNCaP cells grown in androgen-free medium transfected with siRNAs against PCDH-PC (181, 190 and 208) or siRNA against lamin by RT-PCR using primers specific for PCDH-PC (Top Panel) or β-actin (Bottom Panel). PCR reaction products were electrophoresed on agarose gels and were visualized after ethidium bromide staining under UV light. FIG. 5B. LNCaP cells cultured in normal medium (Control) were compared to LNCaP cells grown in androgen-free medium for 7 days without or with transfection with siRNA 181 against PCDH-PC or siRNA against lamin for expression of luciferase from the TCF-sensitive reporter pTOP for normalized luciferase activity. FIG. 5C. […]\nExpression Vectors, Transfection Protocols and Luciferase/β-Glactosidase Assays. […] Luciferase activity in cell extracts was measured using the Luciferase Assay System of Promega, Inc. (Madison, Wis.). β-galactosidase activity was also measured in the same cell extracts using the β-galactosidase Enzyme Assay System of Promega, Inc. All experiments involving luciferase reporter vectors were done in triplicate for each point."}, "Akt": {"tested_on": "Akt", "assay": "Western blot of phosphorylated Akt / MDM2 in LNCaP cells in androgen-free medium", "settings": "androgen-free medium 5 days then transfected 2 days", "excerpt": "FIG. 15. Proteins were extracted from untransfected LNCaP cells maintained in androgen free medium for 7 days (CS-FBS Control) or from 7-day androgen-free LNCaP cells that were transfected for 48 hrs with β-catenin siRNA (CS-FBS+beta-Cat siRNA) or dominant negative Tcf (CS-FBS+DN-Tcf) or PCDH-PC siRNA 181 (CS-FBS+PCDH-PC siRNA) or lamin siRNA (CS-FBS+lamin siRNA). Equal aliquots of protein were electrophoresed on a polyacrylamide gel and then blotted onto a PVDF filter to produce a Western blot. The same blot was probed with an antibody against Akt protein (top panel) or against phosphorylated Akt (ser 473) (second panel) or with an antibody against MDM2 protein (third panel) or phosphorylated MDM2 protein (bottom panel). […] The blockade of Akt phosphorylation by PCDH-PC siRNA could be involved in the process through which this molecule induces the death of prostate cancer cells under androgen-free conditions. […]\nPreparation of cell extracts and western blots. Cells were harvested and protein extracts prepared, quantified and used to prepare Western blots as previously described (Example 1; Yang et al., 2005). […] Recombinant Wnt-1 protein (HA-tagged) was detected with anti-HA antibody (Clontech Inc., Mountain View, Calif.). Antibody binding to the Western blot was detected as previously described (Yang et al., 2005). […]"}}, "note": "Entries after “also recorded” stand apart in the source; their conditions may differ."}
{"substance": "siRNA #181: 21 bp siRNA targeting PCDH-PC mRNA position 3043-3062, 19 bp core with UU overhangs (SEQ ID NO:4) (AAGCATTGAAGCACCAGTGAC; listed as DNA, further chemistry not given here)", "values": [{"measurement": "expression of myc-tagged PCDH-PC polypeptide", "setting": "PCDH-PC", "result": "suppressive effects; also recorded: most effective"}, {"measurement": "selectivity of cell death induction, androgen-free versus normal medium", "setting": "LNCaP cells; LNCaP", "result": "specific to cells grown in androgen free medium, not in normal medium"}, {"measurement": "dead cells (sub-G0 peak)", "setting": "LNCaP cells; listed as #181", "result": "approximately 58%"}, {"measurement": "dead cells (sub-G0 peak)", "setting": "LNCaP cells; listed as PCDH-PC siRNA", "result": 58, "unit": "%"}, {"measurement": "dead cells (sub-G0 peak)", "setting": "LNCaP cells; listed as siRNA against PCDH-PC", "result": 58, "unit": "%"}, {"measurement": "cell death relative to untransfected cells or cells transfected with lamin siRNA", "setting": "LNCaP cells; LNCaP, androgen-free medium 7 days", "result": "greater than 4 ×"}, {"measurement": "induced luciferase expression from pTOP reporter (wnt signaling)", "setting": "[1]", "result": "completely suppressed"}, {"measurement": "Akt phosphorylation (pAkt; and MDM2 phosphorylation)", "setting": "Akt", "result": "reduced"}]}
